What was measured:
MCF7-MnSOD^K68Q cells = assay: Clonogenic cell survival, MCF7-MnSOD^K68Q cells; format: cell-based, human
Protocol: FIGS. 25a-25b show clonogenic cell survival studies in MCF7-MnSOD^K68Q cells exposed to either: Fulv at 100 nM (in FIG. 25a); or Palb at 0.5 μM (in FIG. 25b) using standard methods. […] Error bars are ±1 SEM. Experiments in triplicate. *** p<0.001.
Clonogenic cell survival assay. For the clonogenic survival analysis, exponentially growing cells were replated using appropriate dilutions, and clonogenic survival was evaluated after 14 days in regular growth medium. Cells were stained with crystal violet, and colonies of >50 cells were counted and utilized to calculate clonogenic survival^46.
To evaluate clonogenic cell survival by testing cell growth at low density, 500 exponentially growing cells were plated in triplicate in 6-well plates using serial dilution, and the growth of the cells was examined throughout 14 days in regular growth medium. Cells were fixed with 70% ethanol for 5 minutes and then stained with 0.5% crystal violet (in 25% methanol) for 20 minutes. Photos of stained plates were taken, and colonies of more than 50 cells were counted and used to calculate clonogenic survival.

T47D-MnSOD^K68Q cells = assay: Clonogenic cell survival, T47D cells expressing MnSOD^K68Q; format: cell-based, human; conditions: 1 μM hydroxy-Tam
Protocol: FIGS. 14a-14g are images and plots that illustrate that loss of SIRT3-induced MnSOD-K68 deacetylation leads to hydroxy-Tam resistance in human breast cancer cells. With respect to FIG. 14a, T47D-MnSOD^WT, T47D-MnSOD^K68R, and T47D-MnSOD^K68D permanent cell lines were selected for hydroxy-Tam resistance in 1 μM for 3 months, and clonogenic cell survival experiments were completed. With respect to FIG. 14b, T47D-shCtrl and T47D-shSIRT3 permanent cell lines were exposed to 1 μM 4-hydroxy-Tam For 24 h (HT), and clonogenic cell survival experiments were done. With respect to FIG. 14c, T47D and T47D-HTR cells, with and without exposure to 1 μM 4-hydroxy-Tam for 24 h (HT), were measured for cytotoxicity by clonogenic survival experiments. […] The cell lysates were analyzed by immunoblotting with anti-MnSOD-K122-Ac (validated as a SIRT3 deacetylation target in Tao et al., 2010, Cancer Cell), anti-MnSOD, anti-OSCP-K139-Ac (validated as a SIRT3 deacetylation target in Tao et al., 2010, Cancer Cell), anti-OSCP, anti-IDH2K413-Ac (validated as a SIRT3 deacetylation target in Someya et al., 2010, Cancer Cell), anti-IDH2, and anti-actin. […]
Clonogenic cell survival assay. For the clonogenic survival analysis, exponentially growing cells were replated using appropriate dilutions, and clonogenic survival was evaluated after 14 days in regular growth medium. […]

[1] = system: MCF7 cells overexpressing MnSOD^K68Q; assay: MTT assay, MCF7 cells overexpressing MnSOD^K68Q; format: cell-based, human; conditions: 48 hours
Protocol: In FIGS. 28a-28b, cell lysates of 250 nM, 500 nM, 1 μM cisplatin-resistant and […], 1 nM and 2 nM doxorubicin-resistant MCF7 cells (cultured in drug-containing media for 3 months) were collected and immunoblotted for MnSOD-K68-Ac, MnSOD, actin and tubulin. In FIG. […] After 48 hours, MTT assay is conducted to determine the cell viability after chemotherapy drug treatment.
Cell proliferation was measured using MTT proliferation assay kit (ab211091). 10,000 exponentially growing cells were plated in regular growth medium per well into 96-well plates in triplicate. Cells were treated with specified drugs after overnight and incubated for 48 hours. The treatment media was then discarded and a mixture of 50 μl MTT reagent and 50 μl serum-free media was added into each well and incubated for 3 hours at 37° C. 150 μl of MTT solvent was then added, and the plate was shaken for 15 minutes avoiding light. The absorbance was read at OD=590 nm and used to evaluate cell proliferation.

[2] = system: LNCaP-MnSOD^K68Q xenografts; assay: LNCaP-MnSOD^K68Q hindlimb xenograft growth in nude mice; format: in vivo; conditions: male nude mice; GC4419 10 mg/kg once per week, ENZ 25 mg/kg/day; 46 days
Protocol: In FIG. 21(a), clonogenic cell survival experiments were performed in LNCaP-ENZR (left two bars) and LNCaP-MnSOD^K68Q (right two bars) treated with ENZ, with or without GC4419 (20 μM) for 5 days. […] Tumor volumes were measured three times a week for 46 days. For each group n=10. Error bars ±1 SEM. All experiments done in triplicate. **p<0.01.
Thus, it was surmised that restoring SOD activity, using the pentaaza macrocyclic ring complex GC4419, an agent that chemically detoxifies superoxide, would reverse/convert the ENZR to a sensitive phenotype. […] The dose and pharmacokinetics for GC4419 is based on data for murine models^92-93.

adult mice = conditions: lethal total body irradiation of adult mice; cited from earlier work
rat [3] = conditions: rat model of collagen-induced arthritis; cited from earlier work
rat [4] = conditions: rat model of inflammation; cited from earlier work
hamster = conditions: acute radiation-induced oral mucositis; cited from earlier work
colon of rats = conditions: experimental model of colitis; cited from earlier work

## 4-hydroxytamoxifen [hydroxy-Tam]
MCF7-MnSOD^K68Q cells; MCF7 cells expressing MnSOD^K68Q, 1 μM hydroxy-Tam for 5 days
  cytotoxicity (clonogenic survival), versus cells expressing MnSOD WT or K68R: exhibited significant resistance to the cytotoxicity
T47D-MnSOD^K68Q cells
  cytotoxicity (clonogenic survival), versus cells expressing MnSOD WT or K68R: exhibited significant resistance to the cytotoxicity

## [NH2][Pt]([NH2])([Cl])[Cl] [CDDP, cisplatin]
[1]; CDDP 1 μM
  cell viability (MTT), resistance: exhibited higher resistance

## COc1cccc2c1C(=O)c1c(O)c3c(c(O)c1C2=O)C[C@@](O)(C(=O)CO)C[C@@H]3O[C@H]1C[C@H](N)[C@H](O)[C@H](C)O1 [DXR, doxorubicin]
[1]; DXR 2 nM
  cell viability (MTT), resistance: exhibited higher resistance

## CNC(=O)c1ccc(N2C(=S)N(c3ccc(C#N)c(C(F)(F)F)c3)C(=O)C2(C)C)cc1F [ENZ, enzalutamide, reference compound]
[2]
  xenograft growth (tumor volume): exhibited similar growth characteristics as the control LNCaP cells

## C[C@]12CC[C@@H]3c4ccc(O)cc4C[C@@H](CCCCCCCCC[S+]([O-])CCCC(F)(F)C(F)(F)F)[C@H]3[C@@H]1CC[C@@H]2O (some centres unmarked) [Fulv, Fulvestrant]
MCF7-MnSOD^K68Q cells; Fulv at 100 nM
  clonogenic cell survival, resistance versus MCF7-MnSOD^WT: exhibited resistance

## [Cl-].[Cl-].[Mn+2].c1cc2nc(c1)CN[C@@H]1CCCC[C@H]1NCCN[C@@H]1CCCC[C@H]1NC2 [GC4403]
Adult mice
  radiation damage: attenuate the radiation damage
Rat [3]
  joint disease: prevent joint disease
Rat [4]
  inflammation: inhibit inflammation
hamster
  radiation damage: attenuate the radiation damage
Colon of rats
  injury to the colon: very significantly reduce the injury to the colon
